Assay results published in US10888549B2, “Pharmaceutical agents targeting cancer stem cells” (THE JOHNS HOPKINS UNIVERSITY, priority 2016, dated 2021).

Columns and labels:
[1] = system: urothelial CSCs; test: Sphere formation assay (CSC properties); type: cell-based, human; settings: basal-type cells; 1 μM erlotinib for 72 hours
Procedure: Sphere formation was induced by culturing cells (2×10^4/well) in DMEM/Ham's F12 50/50 Mix (Mediatech) supplemented with B-27 (Life Technologies), 20 ng/mL FGF-basic (Peprotech), 20 ng/mL EGF (Peprotech). Cell culture was performed in ultra-low attachment 6 well plates (Corning, Lowell, USA) for 10 days. The medium was replaced every other day. Sphere formation was evaluated using the inverted phase-contrast microscope, and single sphere with a diameter larger than 100 μm was counted using NIS-Elements Microscope Imaging Software. To redifferentiate spheres, spheres were plated in standard growth medium with 10% FBS in dishes supporting cell attachment, and incubated for 7 days. For self-renewal assay, primary spheres were collected by gentle centrifugation (5 min at 400×g), dissociated with Stempro Accutase Cell Dissociation Reagent (Life Technologies), and mechanically disrupted with a pipette. The cell suspension was sieved through 40 μm cell strainer cap filter to achieve a single-cell suspension, and then equal numbers of alive cells were plated in ultralow attachment plates to generate the second spheres. Again, spheres were counted on day 14 and digested to generate the third Spheres. All the experiments were performed in triplicate and repeated at least three times.

[2] = system: COX2; test: COX2 expression by western blotting; type: cell-based, human
Procedure: (§1) Whole cell lysates were extracted using RIPA buffer (Thermo Scientific) supplemented with 10 μL/mL Halt™ Protease Inhibitor Cocktail Kit (Life Technologies) and 30 μL/mL Halt™ Phosphatase Inhibitor Cocktail Kit (Life Technologies). […] Secondary horseradish peroxidase (HRP)-conjugated antibodies were obtained from Cell Signaling Technology, and chemiluminescent detection of HRP-labeled antibodies was performed using Amersham ECL Prime Western Blotting Detection Reagent (GE Healthcare, Piscataway, USA). As loading control, β-actin was used.

[3] = system: SOX2; test: SOX2 expression by western blotting / flow cytometry; type: cell-based, human; settings: basal-type cells
Procedure: (§2) Whole cell lysates were extracted using RIPA buffer (Thermo Scientific) supplemented with 10 μL/mL Halt™ Protease Inhibitor Cocktail Kit (Life Technologies) and 30 μL/mL Halt™ Phosphatase Inhibitor Cocktail Kit (Life Technologies). The protein concentrations were determined using a Pierce™ BCA Protein Assay Kit (Life Technologies), and the protein were separated on NuPAGE® 4-12% Bis-Tris Gel (Life Technologies) according to the manufacturer's protocol. COX2 (D5H5), NANOG (D73G4), OCT4 (D7O5Z), CD133 (A3G6K), Snail (C15D3), ZEB1 (D80D3), Vimentin (D21H3), CDH2 (D4R1H), CDH1 (24E10), p-EGFR (D7A5), EGFR (D38B1), p-AKT (D9E), AKT (cat #, 9272), p-ERK (D13.14.4E), ERK (137F5), p-YAP1 (D9W2I), p-Src (cat #, 2101), Src (36D10), DNMT1 (D63A6), DNMT3A (D23G1), and DNMT3B (D7O7O) antibodies were obtained from Cell Signaling Technology (Danvers, Mass., USA), except for SOX2 (EPR3131; Abcam, Cambridge, USA), YAP1 (ab52771; Abcam), CD24 (cat #, AF5247-SP; R&D Systems, Minneapolis USA) and β-actin (A2228; Sigma-Aldrich). Secondary horseradish peroxidase (HRP)-conjugated antibodies were obtained from Cell Signaling Technology, and chemiluminescent detection of HRP-labeled antibodies was performed using Amersham ECL Prime Western Blotting Detection Reagent (GE Healthcare, Piscataway, USA). As loading control, β-actin was used.
For extracellular staining, cells (1×10^6/100 μL stain buffer) were incubated with PE-Vio770-conjugated anti-human CD133 (293C3; Miltenyi Biotec, Auburn, USA) or PE-conjugated anti-human CD24 antibody (cat #, 560991; BD Biosciences) for 30 min at 4° C. in dark. PE-Vio770-conjugated Isotype (cat #, 130-098-563; Miltenyi Biotec) and PE-conjugated IgG2a, κ Isotype (cat #, 555574; BD Biosciences) were used as control for CD133 and CD24 staining, respectively. Staining for intracellular SOX2 was carried out using the BD Cytofix/Cytoperm Fixation/Permeabilization Kit (BD Biosciences) according to manufacturer's protocol. The cells were incubated with Alexa Fluor 647-conjugated anti-SOX2 antibody (cat #, 560302; BD Biosciences) for 40 min at 4° C. in dark. Alexa Fluor 647-conjugated anti-IgG2a, κ Isotype (cat #, 558053; BD Biosciences) was used as control. Data were acquired on a BD FACSCalibur flow cytometer (BD Biosciences) using BD CellQuest Pro software (BD Biosciences) and analyzed with FlowJo software v10.1 (Tree Star, Ashland, USA).

[4] = system: AKT and extracellular signal-related kinase (ERK); test: Western blotting of AKT and ERK activation; type: cell-based, human; settings: basal-type cells; 1 μM erlotinib
Procedure: as §2

[5] = system: EGFR-MAPK signaling; test: Western blotting in xenograft tumors that acquired resistance to erlotinib; type: in vivo, mice; settings: xenograft tumors with acquired resistance to EGFR inhibitor
Procedure: as §1
For celecoxib and/or VP treatment, celecoxib (5 mg/kg) was administered via intraperitoneal (i.p.) injection once a day (17), and VP (50 mg/kg) was administered via i.p. every other day (18). […] For GEM and CDDP (GC) treatment (i.p.), CDDP (6 mg/kg) was only applied after the first GEM (60 mg/kg) treatment on day 2, followed by three consecutive treatments of GEM on day 5, 8 and 11 (17). The next cycle was started on day 18, and the treatment was continued until tumor reached 2 cm in diameter. For erlotinib treatment, the mice were treated once a day, 6 days per week, by oral gavage with erlotinib (100 mg/kg) or control (PBS containing 0.5% methyl cellulose (Sigma-Aldrich) and 0.1% TWEEN 80) (20). Tumor size was measured at least every three days. […]

[6] = system: YAP1; test: YAP1 expression by western blotting; type: cell-based, human
Procedure: as §2

C#Cc1cccc(Nc2ncnc3cc(OCCOC)c(OCCOC)cc23)c1 [erlotinib, Erlotinib]
number of spheres [1]: enriched number of spheres | COX2 expression ([2]; basal-type cells): increased | COX2 expression ([2]; non-basal-type cells): did not affect | SOX2 expression [3]: decreased at 1 hour after treatment with erlotinib and then gradually increased | activation of AKT and extracellular signal-related kinase (ERK) [4]: suppressed activation | EGFR-MAPK signaling [5]: remained suppressed | YAP1 expression ([6]; basal-type cells): continuously decreased | YAP1 expression ([6]; non-basal-type cells): did not affect
